Structures can show the parent of a compound that is named as a salt.
Biological target: T1, human CGT (ceramide galactosyltransferase), CHO/CGT lysate (Homo sapiens, UniProt Q16880)
T1 construct: Full-length human CGT cDNA was cloned into the BamH1/Xho1 site of pcDNA3.1 (+); expressed in transfected cells; host or cells: Chinese hamster ovary (CHO) cells; lysate prepared with M-PER
T1 sequence (Q16880 21-541): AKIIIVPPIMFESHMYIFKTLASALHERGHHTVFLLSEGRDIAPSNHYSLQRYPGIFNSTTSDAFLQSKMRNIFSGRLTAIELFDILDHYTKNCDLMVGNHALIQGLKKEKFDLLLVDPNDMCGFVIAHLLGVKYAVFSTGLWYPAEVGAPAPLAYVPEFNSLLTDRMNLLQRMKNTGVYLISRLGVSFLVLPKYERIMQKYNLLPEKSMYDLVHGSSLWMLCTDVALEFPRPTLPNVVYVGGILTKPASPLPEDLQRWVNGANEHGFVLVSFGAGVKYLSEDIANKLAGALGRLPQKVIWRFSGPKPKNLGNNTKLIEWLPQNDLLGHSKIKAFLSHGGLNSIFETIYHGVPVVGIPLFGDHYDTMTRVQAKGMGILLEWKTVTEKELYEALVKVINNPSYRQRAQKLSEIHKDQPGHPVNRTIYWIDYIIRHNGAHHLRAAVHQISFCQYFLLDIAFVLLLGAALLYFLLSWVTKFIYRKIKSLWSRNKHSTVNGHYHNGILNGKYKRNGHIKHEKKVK
Test: CGT enzyme assay, RapidFire/MS/MS readout with 0.01% Tween added (Table 1 ranges with two asterisks **)
Format: biochemical
Settings: CGT enzymatic assay; range with two asterisks (**): RapidFire/MS/MS method with 0.01% Tween added
In short: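 IC50s come from variable-slope dose-response fits of internal-standard-normalized C6-NBD-dihydro-galactosylceramide, measured by RapidFire/MS/MS (ESI negative). Reactions: 1 h, 37 °C, human CGT-expressing CHO lysate (4 μg), 0.001–50 μM compound, 10 μM NBD-dihydro-ceramide, 17.5 μM UDP-galactose, 0.5% DMSO, pH 7.2; 0.01% Tween 80 added for ** values.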

Structure (SMILES)	IC50 [µM]
CCOc1cc(-c2ccc(C(F)(F)[C@H](NS(=O)(=O)c3ccc4cc(OC5CCCC5)ccc4c3)C(=O)N3CCC(N)CC3)cc2)ccc1Cl [Compound 154-1, (R)—N-(3-(4-aminopiperidin-1-yl)-1-(4′-chloro-3′-ethoxy-[1,1′-biphenyl]-4-yl)-1,1-difluoro-3-oxopropan-2-yl)-6-(cyclopentyloxy)naphthalene-2-sulfonamide trifluoroacetate]	1 to 10
CCOc1cc(-c2ccc(C(F)(F)[C@@H](NS(=O)(=O)c3ccc4cc(OC5CCCC5)ccc4c3)C(=O)N3CCC(N)CC3)cc2)ccc1Cl [Compound 154-2, (S)—N-(3-(4-aminopiperidin-1-yl)-1-(4′-chloro-3′-ethoxy-[1,1′-biphenyl]-4-yl)-1,1-difluoro-3-oxopropan-2-yl)-6-(cyclopentyloxy)naphthalene-2-sulfonamide trifluoroacetate]	1 to 10
N[C@@H]1CCN(C(=O)[C@@H](NS(=O)(=O)c2ccc(OCC3CCCCC3)cc2)C(F)(F)c2ccc(-c3ccc(Cl)cc3)cc2)C1 [Compound 155-1, N—((R)-3-((R)-3-aminopyrrolidin-1-yl)-1-(4′-chloro-[1,1′-biphenyl]-4-yl)-1,1-difluoro-3-oxopropan-2-yl)-4-(cyclohexylmethoxy)benzenesulfonamide trifluoroacetate]	< 1
N[C@@H]1CCN(C(=O)[C@H](NS(=O)(=O)c2ccc(OCC3CCCCC3)cc2)C(F)(F)c2ccc(-c3ccc(Cl)cc3)cc2)C1 [Compound 155-2, N—((S)-3-((R)-3-aminopyrrolidin-1-yl)-1-(4′-chloro-[1,1′-biphenyl]-4-yl)-1,1-difluoro-3-oxopropan-2-yl)-4-(cyclohexylmethoxy) benzenesulfonamide trifluoroacetate]	1 to 10
NC1CCN(C(=O)[C@@H](NS(=O)(=O)c2ccc(OCC3CCCCC3)cc2)C(F)(F)c2ccc(-c3ccccc3)cc2)CC1 [Compound 156-1, (R)—N-(1-([1,1′-biphenyl]-4-yl)-3-(4-aminopiperidin-1-yl)-1,1-difluoro-3-oxopropan-2-yl)-4-(cyclohexylmethoxy)benzenesulfonamide trifluoroacetate]	1 to 10
NC1CCN(C(=O)[C@H](NS(=O)(=O)c2ccc(OCC3CCCCC3)cc2)C(F)(F)c2ccc(-c3ccccc3)cc2)CC1 [Compound 156-2, (S)—N-(1-([1,1′-biphenyl]-4-yl)-3-(4-aminopiperidin-1-yl)-1,1-difluoro-3-oxopropan-2-yl)-4-(cyclohexylmethoxy)benzenesulfonamide trifluoroacetate]	30 to 100
CN(CCCN)C(=O)[C@@H](NS(=O)(=O)c1ccc2cc(OC3CCCC3)ccc2c1)C(F)(F)c1ccc(-c2ccc(Cl)cc2)cc1 [Compound 157-1, (R)—N-(3-aminopropyl)-3-(4′-chloro-[1,1′-biphenyl]-4-yl)-2-((6-(cyclopentyloxy)naphthalene)-2-sulfonamido)-3,3-difluoro-N-methylpropanamide]	1 to 10
CN(CCCN)C(=O)[C@H](NS(=O)(=O)c1ccc2cc(OC3CCCC3)ccc2c1)C(F)(F)c1ccc(-c2ccc(Cl)cc2)cc1 [Compound 157-2, (S)—N-(3-aminopropyl)-3-(4′-chloro-[1,1′-biphenyl]-4-yl)-2-((6-(cyclopentyloxy)naphthalene)-2-sulfonamido)-3,3-difluoro-N-methyl propanamide]	30 to 100
NC1CC2CCC(C1)N2C(=O)[C@@H](NC(=O)[C@H](O)c1ccc2cc(OC3CCCC3)ccc2c1)C(F)(F)c1ccc2cc(Br)ccc2c1 (stereo partly drawn) [Compound 158-1, (2R)—N-((2R)-3-(3-amino-8-azabicyclo[3.2.1]octan-8-yl)-1-(6-bromonaphthalen-2-yl)-1,1-difluoro-3-oxopropan-2-yl)-2-(6-(cyclopentyloxy)naphthalen-2-yl)-2-hydroxyacetamide trifluoroacetate]	1 to 10
NC1CC2CCC(C1)N2C(=O)[C@H](NC(=O)[C@@H](O)c1ccc2cc(OC3CCCC3)ccc2c1)C(F)(F)c1ccc2cc(Br)ccc2c1 (stereo partly drawn) [Compound 158-2, (2S)—N-((2 S)-3-(3-amino-8-azabicyclo[3.2.1]octan-8-yl)-1-(6-bromonaphthalen-2-yl)-1,1-difluoro-3-oxopropan-2-yl)-2-(6-(cyclopentyloxy)naphthalen-2-yl)-2-hydroxyacetamide trifluoroacetate]	30 to 100
NC1CC2CCC(C1)N2C(=O)[C@@H](NC(=O)[C@@H](O)c1ccc2cc(OC3CCCC3)ccc2c1)C(F)(F)c1ccc2cc(Br)ccc2c1 (stereo partly drawn) [Compound 158-3, (2S)—N-((2R)-3-(3-amino-8-azabicyclo[3.2.1]octan-8-yl)-1-(6-bromonaphthalen-2-yl)-1,1-difluoro-3-oxopropan-2-yl)-2-(6-(cyclopentyloxy)naphthalen-2-yl)-2-hydroxyacetamide trifluoroacetate]	10 to 30
NC1CC2CCC(C1)N2C(=O)[C@H](NC(=O)[C@H](O)c1ccc2cc(OC3CCCC3)ccc2c1)C(F)(F)c1ccc2cc(Br)ccc2c1 (stereo partly drawn) [Compound 158-4, (2R)—N-((2S)-3-(3-amino-8-azabicyclo[3.2.1]octan-8-yl)-1-(6-bromonaphthalen-2-yl)-1,1-difluoro-3-oxopropan-2-yl)-2-(6-(cyclopentyloxy)naphthalen-2-yl)-2-hydroxyacetamide trifluoroacetate]	30 to 100
NC1CCN(C(=O)[C@@H](NC(=O)[C@H](O)c2ccc3cc(OC4CCCC4)ccc3c2)C(F)(F)c2ccc(-c3ccc(Cl)cc3)cc2)CC1 [Compound 159-1, (R)—N—((R)-3-(4-aminopiperidin-1-yl)-1-(4′-chloro-[1,1′-biphenyl]-4-yl)-1,1-difluoro-3-oxopropan-2-yl)-2-(6-(cyclopentyloxy)naphthalen-2-yl)-2-hydroxyacetamide trifluoroacetate]	1 to 10
NC1CCN(C(=O)[C@H](NC(=O)[C@@H](O)c2ccc3cc(OC4CCCC4)ccc3c2)C(F)(F)c2ccc(-c3ccc(Cl)cc3)cc2)CC1 [Compound 159-2, (S)—N—((S)-3-(4-aminopiperidin-1-yl)-1-(4′-chloro-[1,1′-biphenyl]-4-yl)-1,1-difluoro-3-oxopropan-2-yl)-2-(6-(cyclopentyloxy)naphthalen-2-yl)-2-hydroxyacetamide trifluoroacetate]	30 to 100
NC1CCN(C(=O)[C@@H](NC(=O)[C@@H](O)c2ccc3cc(OC4CCCC4)ccc3c2)C(F)(F)c2ccc(-c3ccc(Cl)cc3)cc2)CC1 [Compound 159-3, (S)—N—((R)-3-(4-aminopiperidin-1-yl)-1-(4′-chloro-[1,1′-biphenyl]-4-yl)-1,1-difluoro-3-oxopropan-2-yl)-2-(6-(cyclopentyloxy)naphthalen-2-yl)-2-hydroxyacetamide trifluoroacetate]	1 to 10
NC1CCN(C(=O)[C@H](NC(=O)[C@H](O)c2ccc3cc(OC4CCCC4)ccc3c2)C(F)(F)c2ccc(-c3ccc(Cl)cc3)cc2)CC1 [Compound 159-4, (R)—N—((S)-3-(4-aminopiperidin-1-yl)-1-(4′-chloro-[1,1′-biphenyl]-4-yl)-1,1-difluoro-3-oxopropan-2-yl)-2-(6-(cyclopentyloxy)naphthalen-2-yl)-2-hydroxyacetamide trifluoroacetate]	30 to 100
NC1CC2CCC(C1)N2C(=O)[C@@H](NC(=O)C(=O)c1ccc2cc(OC3CCCC3)ccc2c1)C(F)(F)c1ccc2cc(Br)ccc2c1 (stereo partly drawn) [Compound 160-1, N-((2R)-3-(3-amino-8-azabicyclo[3.2.1]octan-8-yl)-1-(6-bromonaphthalen-2-yl)-1,1-difluoro-3-oxopropan-2-yl)-2-(6-(cyclopentyloxy)naphthalen-2-yl)-2-oxoacetamide trifluoroacetate]	10 to 30
NC1CC2CCC(C1)N2C(=O)[C@H](NC(=O)C(=O)c1ccc2cc(OC3CCCC3)ccc2c1)C(F)(F)c1ccc2cc(Br)ccc2c1 (stereo partly drawn) [Compound 160-2, N-((2S)-3-(3-amino-8-azabicyclo[3.2.1]octan-8-yl)-1-(6-bromonaphthalen-2-yl)-1,1-difluoro-3-oxopropan-2-yl)-2-(6-(cyclopentyloxy)naphthalen-2-yl)-2-oxoacetamide trifluoroacetate]	30 to 100
N[C@@H]1CCN(C(=O)[C@@H](NS(=O)(=O)c2ccc3cc(OC4CCCC4)ccc3c2)C(F)(F)c2ccc(-c3ccc(Cl)cc3)cc2)CC1(F)F [Compound 161-1, N—((R)-3-((R)-4-amino-3,3-difluoropiperidin-1-yl)-1-(4′-chloro-[1,1′-biphenyl]-4-yl)-1,1-difluoro-3-oxopropan-2-yl)-6-(cyclopentyloxy)naphthalene-2-sulfonamide trifluoroacetate]	1 to 10
N[C@H]1CCN(C(=O)[C@H](NS(=O)(=O)c2ccc3cc(OC4CCCC4)ccc3c2)C(F)(F)c2ccc(-c3ccc(Cl)cc3)cc2)CC1(F)F [Compound 161-2, N—((S)-3-((S)-4-amino-3,3-difluoropiperidin-1-yl)-1-(4′-chloro-[1,1′-biphenyl]-4-yl)-1,1-difluoro-3-oxopropan-2-yl)-6-(cyclopentyloxy) naphthalene-2-sulfonamide trifluoroacetate]	30 to 100

From patent publication US20190322676A1, “CERAMIDE GALACTOSYLTRANSFERASE INHIBITORS FOR THE TREATMENT OF DISEASE” (BioMarin Pharmaceutical Inc., priority 2016, published 2019)
